Patent publication US20110046147A1, “17BETA-HYDROXYSTEROID DEHYDROGENASE TYPE 1 INHIBITORS FOR THE TREATMENT OF HORMONE-RELATED DISEASES” (UNIVERSITAT DES SAARLANDES, priority 2007, published 2011)

What was measured:
[1] = In vivo pharmacokinetics (rat), peroral cassette dosing; design: species or system Wistar rats; conditions: 10 mg/kg
Experimental: In vivo pharmacokinetics (rat): The compounds 29, 45, 47 and 59 and a reference compound were administered to adult male Wistar rats (n=4) perorally in a cassette dosing method (vehicle: Labrasol/water 1/1). The plasma profiles were established by means of LC-MS/MS.
• Cmax obs highest measured concentration • Cz last analytically quantifiable concentration • tmax obs time to reach the highest measured concentration • tz time to withdrawal of the last sample with analytically quantifiable concentration • t1/2z half life (determined from the slope of the declining portion of the concentration vs. time curve • AUC0-tz area below the concentration vs. time curve up to time tZ • AUC0-∞ area below the concentration vs. time curve, extrapolated to ∞

[2] = CaCo2 transport assay; assay type: in vitro ADME; conditions: human, Caco-2; 50 μM in donor compartment; read-out: Papp [cm/sec ± rel. SD]
Experimental: (§1) Performance of selected compounds in a CaCo2 assay: Caco-2 cell culture and transport experiments were performed according to Yee (Yee, S., Pharm. Res., 14(6): 763-766 (1997)), but slight modifications were introduced. The cultivation times were reduced from 21 to 10 days by increasing the sowing density from 6.3·10^4 to 1.65·10^5 cells per well. […] The initial concentration of the compounds in the donor compartment was 50 μM (in buffer with 1% ethanol or DMSO). Samples were taken from the acceptor side after 60, 120 and 180 min and from the donor side after 0 and 180 min. For glycoprotein P (P-gp) studies, bidirectional experiments were performed. The absorptive and secretory permeabilities (Papp (a-b) and Papp (b-a)) were determined. Thus, erythromycin was used as a substrate, and verapamil was used as an inhibitor of P-gp. Each experiment was performed in triplicate. The integrity of the monolayer was determined by means of TEER (transepithelial electric resistance) and the permeability for each assay was determined using Lucifer Yellow. All samples of the CaCo-2 transport experiments were analyzed by means of LC/MS/MS after dilution with buffer (1:1 with 2% acetic acid). The apparent permeability coefficient (Papp) was calculated by means of the formula given below, where dQ/dt represents the recovery rate of the mass in the acceptor compartment, A represents the surface area of the transwell membrane, and c0 represents the initial concentration in the donor compartment.

[3] = tested on: CaCo-2 cells; experiment: CaCo2 transport assay; assay type: in vitro ADME; conditions: 50 μM in donor compartment
Experimental: as §1

[4] = target: T1, 17β-HSD2 (Homo sapiens, UniProt P37059); experiment: Inhibition of 17β-HSD2 (estradiol to estrone, radio-HPLC); assay type: biochemical; conditions: human placenta microsome fraction, 500 nM estradiol, NAD+ 1500 μM
T1 construct: from tissue; host or cells: human placenta, microsome fraction
T1 sequence (P37059 1-387): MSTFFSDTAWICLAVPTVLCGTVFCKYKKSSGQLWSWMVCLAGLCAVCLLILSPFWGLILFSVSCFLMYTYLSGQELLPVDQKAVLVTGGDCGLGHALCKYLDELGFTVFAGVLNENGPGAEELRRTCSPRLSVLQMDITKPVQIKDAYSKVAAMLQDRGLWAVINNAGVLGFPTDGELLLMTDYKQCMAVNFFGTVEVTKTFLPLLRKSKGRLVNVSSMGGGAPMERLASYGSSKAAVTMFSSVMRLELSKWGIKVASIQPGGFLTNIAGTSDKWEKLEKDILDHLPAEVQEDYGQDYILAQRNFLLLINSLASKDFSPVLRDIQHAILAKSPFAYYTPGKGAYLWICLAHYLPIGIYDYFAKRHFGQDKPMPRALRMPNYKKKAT
Experimental: Determination of the inhibitory activity of the potential inhibitors: Inhibition of 17β-HSD1 and 17β-HSD2: In both cases, human placenta served as the enzyme source (Lin, S.-X. et al., J. Biol. Chem., 267: 16182-16187 (1992)).
In the 17β-HSD2 test, the natural cosubstrate NAD^+ is employed at a final concentration of 1500 μM. The microsome fraction is diluted in test buffer, so that a control conversion of 20 to 30% results (about 1:350). As the substrate, estradiol in a final concentration of 500 nM is used, of which 3 nM is tritiated. 2,4,6,7-[^3H]estradiol is also purchased from Perkin-Elmer, Boston. The inhibitor is added as a solution in DMSO (control: pure DMSO without inhibitor; the final concentration of DMSO in the assay is […]). After the addition of the substrate, incubation is performed at 37° C. for 20 minutes. The reaction is quenched by the addition of HgCl2 (final concentration of HgCl2: 0.166 mM).
(§2) After the reaction, the substrate and product are extracted by partitioning with ether, separated by chromatography (HPLC) and quantified by means of radiodetection.

[5] = target: T2, 17β-HSD1 (Homo sapiens, UniProt P14061); experiment: Inhibition of 17β-HSD1 (estrone to estradiol, radio-HPLC); assay type: biochemical; conditions: for IC50: human placenta enzyme, 500 nM estrone, NADH 500 μM; for Selectivity IC50 (17β-HSD2)/IC50 (17β-HSD1): ratio of IC50 values
T2 construct: In both cases, human placenta served as the enzyme source; from tissue; host or cells: human placenta
T2 sequence (P14061 1-328): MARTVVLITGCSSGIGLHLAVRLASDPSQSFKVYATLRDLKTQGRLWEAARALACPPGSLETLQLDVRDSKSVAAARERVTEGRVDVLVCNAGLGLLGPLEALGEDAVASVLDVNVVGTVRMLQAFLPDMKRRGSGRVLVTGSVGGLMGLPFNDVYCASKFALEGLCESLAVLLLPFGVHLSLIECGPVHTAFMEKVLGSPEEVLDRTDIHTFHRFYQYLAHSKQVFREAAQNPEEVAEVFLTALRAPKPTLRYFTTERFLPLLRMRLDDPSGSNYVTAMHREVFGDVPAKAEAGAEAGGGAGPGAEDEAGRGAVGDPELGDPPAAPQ
Experimental: In the 17β-HSD1 test, NADH is employed as a cosubstrate at a final concentration of 500 μM in order to avoid the product inhibition occurring with NADPH. The enzyme preparation is diluted with test buffer to such an extent that the control conversion is 10 to maximally 20% (about 1:650). As the substrate, estrone in a final concentration of 500 nM is used, of which 3 nM is tritiated. 2,4,6,7-[^3H]estrone is purchased from Perkin-Elmer, Boston. The inhibitor is added as a solution in DMSO (control: pure DMSO without inhibitor; the final concentration of DMSO in the assay is 1% in all cases).
as §2

[6] = target: T3, estrogen receptor α (Homo sapiens, UniProt P03372); experiment: Affinity for the estrogen receptor α (RBA); assay type: binding; conditions: data not stated
T3 sequence (P03372 1-595): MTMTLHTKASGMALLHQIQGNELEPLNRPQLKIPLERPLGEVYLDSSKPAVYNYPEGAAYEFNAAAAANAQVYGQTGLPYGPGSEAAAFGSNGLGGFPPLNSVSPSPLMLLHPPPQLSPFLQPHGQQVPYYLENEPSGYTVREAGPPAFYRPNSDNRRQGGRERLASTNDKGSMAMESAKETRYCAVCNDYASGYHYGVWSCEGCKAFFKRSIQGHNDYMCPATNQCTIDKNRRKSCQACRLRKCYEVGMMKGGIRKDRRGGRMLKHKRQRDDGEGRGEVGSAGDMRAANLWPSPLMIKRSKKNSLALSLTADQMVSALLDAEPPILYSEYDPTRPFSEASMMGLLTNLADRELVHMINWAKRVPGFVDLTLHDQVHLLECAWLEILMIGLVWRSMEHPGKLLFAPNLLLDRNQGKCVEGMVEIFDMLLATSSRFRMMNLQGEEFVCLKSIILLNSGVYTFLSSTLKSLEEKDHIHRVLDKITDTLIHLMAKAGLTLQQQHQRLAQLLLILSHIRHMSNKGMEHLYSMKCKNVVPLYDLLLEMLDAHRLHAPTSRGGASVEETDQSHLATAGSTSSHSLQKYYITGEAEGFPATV
Experimental: Slight changes were made: The respective inhibitor was incubated at RT for 2 h with shaking.
The receptor affinities are established as RBA (relative binding affinity) values. The RBA value of the reference estradiol is set to 100%.

[7] = target: T4, CYP2C19 (Homo sapiens, UniProt P33261); experiment: Inhibition of hepatic CYP enzymes: CYP2C19; assay type: biochemical
T4 construct: purchased Becton Dickinson GmbH (Heidelberg)
Source text: (§3) Drug interactions (inhibition of hepatic CYP enzymes): The inhibition of six human hepatic cytochrome P450 enzymes by selected compounds was examined by means of the kit supplied by Becton Dickinson GmbH (Heidelberg).

[8] = target: T5, CYP1A2 (Homo sapiens, UniProt P05177); experiment: Inhibition of hepatic CYP enzymes: CYP1A2; assay type: biochemical; conditions: read-out: CYP1A2 IC50 (mean ± SD)
T5 construct: purchased Becton Dickinson GmbH (Heidelberg)
T5 sequence (P05177 1-516): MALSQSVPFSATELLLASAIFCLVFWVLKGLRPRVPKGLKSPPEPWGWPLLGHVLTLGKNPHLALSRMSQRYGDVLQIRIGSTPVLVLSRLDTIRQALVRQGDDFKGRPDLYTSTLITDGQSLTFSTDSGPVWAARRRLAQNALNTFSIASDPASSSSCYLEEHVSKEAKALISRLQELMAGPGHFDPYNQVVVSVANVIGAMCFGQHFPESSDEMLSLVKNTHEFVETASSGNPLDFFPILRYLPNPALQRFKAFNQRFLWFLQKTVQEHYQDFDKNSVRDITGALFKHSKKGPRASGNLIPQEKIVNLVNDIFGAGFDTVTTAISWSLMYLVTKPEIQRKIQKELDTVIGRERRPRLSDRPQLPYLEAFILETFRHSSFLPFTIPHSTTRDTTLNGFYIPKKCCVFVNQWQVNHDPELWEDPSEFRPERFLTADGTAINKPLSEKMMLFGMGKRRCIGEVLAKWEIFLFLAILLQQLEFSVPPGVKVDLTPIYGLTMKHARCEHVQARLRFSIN
Source text: as §3

T4 sequence (P33261 whole entry): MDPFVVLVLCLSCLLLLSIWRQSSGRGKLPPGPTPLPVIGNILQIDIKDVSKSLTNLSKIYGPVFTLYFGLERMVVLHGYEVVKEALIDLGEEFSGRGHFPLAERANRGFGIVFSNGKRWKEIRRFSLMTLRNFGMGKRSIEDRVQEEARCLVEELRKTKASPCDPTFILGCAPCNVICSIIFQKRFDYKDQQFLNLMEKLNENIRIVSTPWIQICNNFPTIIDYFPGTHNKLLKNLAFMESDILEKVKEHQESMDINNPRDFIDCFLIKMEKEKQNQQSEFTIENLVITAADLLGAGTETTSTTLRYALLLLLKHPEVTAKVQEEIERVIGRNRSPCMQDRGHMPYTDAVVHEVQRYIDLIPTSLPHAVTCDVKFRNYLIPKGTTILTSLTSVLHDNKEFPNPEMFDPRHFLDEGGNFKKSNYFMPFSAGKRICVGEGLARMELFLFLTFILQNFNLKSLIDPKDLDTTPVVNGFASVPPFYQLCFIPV

Papp at 180 min, 50 μM [2] | Permeability (class in words) [3] | IC50 [4] | IC50 [5] | Selectivity IC50 (17β-HSD2)/IC50 (17β-HSD1) [5] | SMILES | also measured
7.3 ×10⁻⁶ cm/s | medium-high | 800 nM | 560 nM | 1.4 | Oc1ccc(-c2cc(-c3cccc(O)c3)on2)cc1 [Compound 18, 3-[3-(4-Hydroxyphenyl)isoxazole-5-yl]phenol] | 
 |  |  | 320 nM |  | Oc1ccc(-c2csc(-c3cccc(O)c3)n2)cc1 [Compound 23, 3-[4-(4-Hydroxyphenyl)-1,3-thiazole-2-yl]phenol] | affinity for the estrogen receptor (in words) [6]: negligible
7.9 ×10⁻⁶ cm/s | medium-high | 1020 nM | 570 nM | 1.8 | Oc1ccc(-c2cnc(-c3cccc(O)c3)o2)cc1 [Compound 8, 3-[5-(4-Hydroxyphenyl)-1,3-oxazole-2-yl]phenol] | 
 | high | 1700 nM | 130 nM |  | Oc1ccc(-c2cc(-c3cccc(O)c3)cs2)cc1 [Compound 32, 3-[5-(4-Hydroxyphenyl)-3-thienyl]phenol] | IC50 [7]: 4.43 ± 0.17 µM; IC50 [8]: 8.68 ± 0.29 µM
7.8 ×10⁻⁶ cm/s | medium-high | 4000 nM | 50 nM | 80 | Oc1ccc(-c2cnc(-c3cccc(O)c3)s2)cc1 [Compound 19, 3-[5-(4-Hydroxyphenyl)-1,3-thiazole-2-yl]phenol] | 

Second part, the molecule before the results:

SMILES | Papp at 180 min, 50 μM [2] | Permeability (class in words) [3] | IC50 [4] | IC50 [5] | Selectivity IC50 (17β-HSD2)/IC50 (17β-HSD1) [5] | also measured
Oc1ccc(-c2ccc(-c3cccc(O)c3)s2)cc1 [Compound 29, 3-[5-(4-Hydroxyphenyl)-2-thienyl]phenol] | 22 ×10⁻⁶ cm/s | high | 1950 nM | 60 nM | 33 | tz (time of last sample with quantifiable concentration) [1]: 10.0 h; Cz (last analytically quantifiable concentration) ([1]; plasma): 6.56 ng/mL; AUC(0-t) ([1]; male, Wistar, plasma, po): 99.2 ng·h/mL; AUC(0-inf) ([1]; male, Wistar, plasma, po, extrapolated to ∞): 99.2 ng·h/mL; half-life ([1]; male, Wistar, plasma, po, read-out: t1/2z (half life) (converted)): 90 min; Tmax ([1]; male, Wistar, plasma, po, read-out: tmax obs (time to reach the highest measured concentration)): 8 h; Cmax ([1]; male, Wistar, po, plasma, read-out: Cmax obs (highest measured concentration)): 7.8 ng/mL
Oc1cccc(-c2nsc(-c3cccc(O)c3)n2)c1 [Compound 37] | 3.6 ×10⁻⁶ cm/s | medium | 600 nM | 180 nM | 3.3 | 
Oc1ccc(-c2cccc(-c3ccc(O)cc3)c2)cc1 [Compound 41, [1,1′;3′,1″]Terphenyl-4,4″-diol] | 12.6 ×10⁻⁶ cm/s | high | 2200 nM | 1600 nM | 1.4 | 
Oc1ccc(-c2nc(-c3cccc(O)c3)cs2)cc1 [Compound 24, 3-[2-(4-Hydroxyphenyl)-1,3-thiazole-4-yl]phenol] |  |  |  |  |  | affinity for the estrogen receptor (in words) [6]: negligible; inhibition at 1 µM ([5]; read-out: inhibition of 17β-HSD1 at 1 μM): 49%
Cc1cc(O)cc(-c2ccc(-c3ccc(O)cc3)s2)c1 [Compound 53, 3-[5-(4-Hydroxyphenyl)-2-thienyl]-5-methylphenol] | 24.2 ×10⁻⁶ cm/s | high |  | 450 nM |  | 
Oc1ccc(-c2ncc(-c3cccc(O)c3)s2)cc1 [Compound 20, 3-[2-(4-Hydroxyphenyl)-1,3-thiazole-5-yl]phenol] | 11.7 ×10⁻⁶ cm/s | high | 3100 nM | 180 nM | 17 | 
